Assay results as given in the supplement of paper PMC7796163.
± gives the uncertainty stated by the source.

Key:
Assay in all cases: CYP enzyme activity (probe substrate metabolite formation) fold change vs solvent control; higher = stronger induction of CYP activity
Conditions in all cases: HepaRG
CYP2C8 = target: T1, CYP2C8 (UniProt P10632)
T1 sequence (whole entry): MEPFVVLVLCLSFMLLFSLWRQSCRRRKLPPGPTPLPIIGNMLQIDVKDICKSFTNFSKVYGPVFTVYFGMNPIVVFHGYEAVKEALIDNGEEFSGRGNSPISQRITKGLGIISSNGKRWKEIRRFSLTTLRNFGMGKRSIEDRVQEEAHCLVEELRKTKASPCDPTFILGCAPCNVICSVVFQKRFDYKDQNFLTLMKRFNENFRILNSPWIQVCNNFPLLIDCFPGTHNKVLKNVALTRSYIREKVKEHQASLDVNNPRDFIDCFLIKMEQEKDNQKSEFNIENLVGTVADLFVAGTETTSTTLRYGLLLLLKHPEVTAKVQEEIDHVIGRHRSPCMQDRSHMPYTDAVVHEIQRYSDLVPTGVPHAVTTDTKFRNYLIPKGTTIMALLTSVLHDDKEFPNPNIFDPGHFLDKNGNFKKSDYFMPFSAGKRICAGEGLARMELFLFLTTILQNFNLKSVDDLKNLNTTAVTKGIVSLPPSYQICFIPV
Method: (§1)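 Differentiated HepaRG cells were treated with 1, 5 or 10 µM of each PAH (0.5% DMSO) for 12, 24 or 48 h, then incubated for 3 h at 37 °C with a cocktail of isoform-specific CYP substrates (phenacetin for CYP1A2, bupropion for CYP2B6, amodiaquine for CYP2C8, tolbutamide for CYP2C9, mephenytoin for CYP2C19, propafenone for CYP2D6, atorvastatin for CYP3A4). Metabolite formation was quantified by LC-MS as a measure of CYP activity and reported as fold change over solvent control (mean ± SD, n=3). Values below the LLOQ were set to half the LLOQ.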

CYP1A2 = target: T2, CYP1A2 (UniProt P05177)
T2 sequence (whole entry): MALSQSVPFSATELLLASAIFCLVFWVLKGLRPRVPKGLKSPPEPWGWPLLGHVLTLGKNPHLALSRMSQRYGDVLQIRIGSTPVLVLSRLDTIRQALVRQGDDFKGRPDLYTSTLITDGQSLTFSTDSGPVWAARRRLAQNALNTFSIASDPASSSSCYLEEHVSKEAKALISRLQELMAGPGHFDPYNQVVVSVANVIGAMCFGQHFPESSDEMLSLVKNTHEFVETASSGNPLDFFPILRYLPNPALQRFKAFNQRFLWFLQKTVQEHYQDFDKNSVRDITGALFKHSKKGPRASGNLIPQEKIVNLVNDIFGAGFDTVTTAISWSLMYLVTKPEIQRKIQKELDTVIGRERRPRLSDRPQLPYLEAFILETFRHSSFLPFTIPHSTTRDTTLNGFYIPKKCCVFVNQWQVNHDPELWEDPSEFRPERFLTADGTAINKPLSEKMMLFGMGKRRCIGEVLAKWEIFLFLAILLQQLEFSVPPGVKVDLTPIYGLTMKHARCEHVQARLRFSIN
Method: as §1

CYP2B6 = target: T3, CYP2B6 (UniProt P20813)
T3 sequence (whole entry): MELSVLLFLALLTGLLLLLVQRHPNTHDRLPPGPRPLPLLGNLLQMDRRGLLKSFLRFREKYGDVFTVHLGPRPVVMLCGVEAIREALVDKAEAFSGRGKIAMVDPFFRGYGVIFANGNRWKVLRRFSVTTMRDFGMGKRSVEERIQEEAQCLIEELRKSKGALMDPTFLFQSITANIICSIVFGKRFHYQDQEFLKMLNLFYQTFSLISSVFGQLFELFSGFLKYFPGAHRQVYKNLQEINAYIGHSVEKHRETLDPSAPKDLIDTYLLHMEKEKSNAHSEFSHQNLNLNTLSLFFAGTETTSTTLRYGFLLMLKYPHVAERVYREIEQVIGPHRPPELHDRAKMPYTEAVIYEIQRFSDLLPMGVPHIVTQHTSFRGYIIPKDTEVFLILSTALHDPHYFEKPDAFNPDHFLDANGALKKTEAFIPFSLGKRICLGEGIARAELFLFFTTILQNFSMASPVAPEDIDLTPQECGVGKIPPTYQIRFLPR
Method: as §1

CYP2D6 = CYP2D6 (UniProt P10635)
Sequence of CYP2D6 (P10635 whole entry): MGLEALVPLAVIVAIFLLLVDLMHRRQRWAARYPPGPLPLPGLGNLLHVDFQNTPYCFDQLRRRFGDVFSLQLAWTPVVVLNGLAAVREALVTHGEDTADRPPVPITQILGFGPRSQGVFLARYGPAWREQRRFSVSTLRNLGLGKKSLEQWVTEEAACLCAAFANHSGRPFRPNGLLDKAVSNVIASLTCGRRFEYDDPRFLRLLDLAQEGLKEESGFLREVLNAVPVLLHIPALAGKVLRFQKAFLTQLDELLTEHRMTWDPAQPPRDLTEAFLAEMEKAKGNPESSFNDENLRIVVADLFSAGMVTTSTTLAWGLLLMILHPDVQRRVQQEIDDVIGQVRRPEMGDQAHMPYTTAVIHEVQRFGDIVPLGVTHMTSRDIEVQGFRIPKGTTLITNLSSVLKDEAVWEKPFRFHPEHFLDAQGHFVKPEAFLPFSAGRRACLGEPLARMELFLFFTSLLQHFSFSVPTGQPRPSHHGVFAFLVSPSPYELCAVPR
Method: as §1

CYP2C19 = CYP2C19 (UniProt P33261)
Sequence of CYP2C19 (P33261 whole entry): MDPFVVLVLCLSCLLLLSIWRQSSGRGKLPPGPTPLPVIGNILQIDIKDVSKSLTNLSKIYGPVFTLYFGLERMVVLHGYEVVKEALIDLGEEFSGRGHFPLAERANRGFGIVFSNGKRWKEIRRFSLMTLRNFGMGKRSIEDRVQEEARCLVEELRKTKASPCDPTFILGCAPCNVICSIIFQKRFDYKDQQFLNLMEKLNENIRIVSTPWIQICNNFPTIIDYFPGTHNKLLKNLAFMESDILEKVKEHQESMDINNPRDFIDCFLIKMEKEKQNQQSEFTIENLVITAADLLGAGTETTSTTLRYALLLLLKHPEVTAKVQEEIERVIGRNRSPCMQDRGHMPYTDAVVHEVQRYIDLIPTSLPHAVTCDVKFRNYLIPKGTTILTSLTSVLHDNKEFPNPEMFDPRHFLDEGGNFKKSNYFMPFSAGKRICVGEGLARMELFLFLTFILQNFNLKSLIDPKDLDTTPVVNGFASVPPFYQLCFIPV
Method: as §1

CYP3A4 = CYP3A4 (UniProt P08684)
Sequence of CYP3A4 (P08684 whole entry): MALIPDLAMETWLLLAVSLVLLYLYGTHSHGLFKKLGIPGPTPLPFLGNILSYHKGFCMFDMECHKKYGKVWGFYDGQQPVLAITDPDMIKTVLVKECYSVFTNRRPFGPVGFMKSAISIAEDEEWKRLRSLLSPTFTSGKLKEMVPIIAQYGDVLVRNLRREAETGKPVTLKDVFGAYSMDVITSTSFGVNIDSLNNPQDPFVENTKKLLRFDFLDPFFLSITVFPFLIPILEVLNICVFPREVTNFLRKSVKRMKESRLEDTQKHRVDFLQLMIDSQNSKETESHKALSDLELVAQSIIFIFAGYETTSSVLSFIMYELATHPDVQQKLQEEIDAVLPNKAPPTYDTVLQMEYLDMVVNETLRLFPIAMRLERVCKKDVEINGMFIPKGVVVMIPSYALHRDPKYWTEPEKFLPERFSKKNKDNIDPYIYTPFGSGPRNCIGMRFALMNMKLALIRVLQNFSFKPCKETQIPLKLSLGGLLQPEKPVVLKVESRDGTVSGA
Method: as §1

CYP2C9 = CYP2C9 (UniProt P11712)
Sequence of CYP2C9 (P11712 whole entry): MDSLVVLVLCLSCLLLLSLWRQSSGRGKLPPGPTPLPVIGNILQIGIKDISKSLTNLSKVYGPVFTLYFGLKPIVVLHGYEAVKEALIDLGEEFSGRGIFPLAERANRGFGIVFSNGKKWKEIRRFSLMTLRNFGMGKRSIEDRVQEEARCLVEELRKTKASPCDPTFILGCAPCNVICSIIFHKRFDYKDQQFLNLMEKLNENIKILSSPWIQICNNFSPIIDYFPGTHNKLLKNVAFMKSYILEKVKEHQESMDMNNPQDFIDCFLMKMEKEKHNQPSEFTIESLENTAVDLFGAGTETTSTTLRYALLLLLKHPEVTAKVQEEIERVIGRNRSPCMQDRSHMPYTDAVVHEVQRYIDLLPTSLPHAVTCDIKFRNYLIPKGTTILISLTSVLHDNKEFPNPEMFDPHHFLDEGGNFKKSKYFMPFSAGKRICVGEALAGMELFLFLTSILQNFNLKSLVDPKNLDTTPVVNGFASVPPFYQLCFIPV
Method: as §1

c1ccc2c(c1)ccc1ccccc12 [phenanthrene]
CYP enzyme activity
Conditions	CYP1A2	CYP2B6	CYP2C8	CYP2C9	CYP2C19	CYP2D6	CYP3A4
1 µM, treatment time 12 h	0.969	1.02	0.995	1.02	0.946	0.961	0.891
1 µM, treatment time 24 h	0.862	1.18	1.01	1.05	0.961	0.97	0.828
1 µM, treatment time 48 h	0.839	1.15	1.01	1.06	0.981	0.879	0.844
5 µM, treatment time 12 h	1.04	1.25	0.991	1.08	1.06	1.08	0.961
5 µM, treatment time 24 h	1.18	1.98	1.05	1.27	1.15	1.19	1.1
5 µM, treatment time 48 h	1.09	2.15	1.08	1.23	1.16	1.05	1.1
10 µM, treatment time 12 h	1.1	1.12	0.995	1.03	0.985	1.03	0.928
10 µM, treatment time 24 h	1.06	1.75	1.04	1.17	1.11	0.986	0.994
10 µM, treatment time 48 h	1.11	2.29	1.08	1.34	1.17	1.03	1.11

c1cc2ccc3cccc4ccc(c1)c2c34 [pyrene]
CYP enzyme activity
Conditions	CYP1A2	CYP2B6	CYP2C8	CYP2C9	CYP2C19	CYP2D6	CYP3A4
1 µM, treatment time 12 h	1.18	1.1	1.01	0.925	0.893	0.973	0.912
1 µM, treatment time 24 h	1.15	1.42	1.04	1.07	1.04	0.894	0.91
1 µM, treatment time 48 h	1.07	1.3	1.07	1.18	1.16	0.996	0.931
5 µM, treatment time 12 h	1.32	1.41	0.921	0.982	1.06	1.07	0.987
5 µM, treatment time 24 h	1.42	2.27	1.07	1.08	1.06	1.04	1.01
5 µM, treatment time 48 h	1.28	2.75	1.1	1.14	1.15	0.942	1.07
10 µM, treatment time 12 h	1.31	1.33	0.924	0.914	1.02	1.11	0.916
10 µM, treatment time 24 h	1.57	2.4	1.14	1.08	1.18	1.2	1.21
10 µM, treatment time 48 h	1.52	3.6	1.15	1.45	1.3	1.12	1.32
